The source of these data is patent US20230085307A1, “PYRIDAZINONE COMPOUND AND HERBICIDE” (NISSAN CHEMICAL CORPORATION, priority 2019, published 2023).

Assay [1] concerns barnyard grass. Kind of assay: Test Example 3: herbicidal effect by foliage application, Wagner pot (Table 18, symbol H). To be noted: amount of applied herbicide 320 g/ha. The class given is in vivo, barnyard grass (Echinochloa crus-galli). In short, it runs like this: (§1)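 Plants were sown in alluvial soil held under 0.1–0.5 cm standing water and grown 14 days in a greenhouse at 25–30 °C. An emulsifiable formulation, water-diluted to the set dose, was then sprayed onto the foliage, and effects were scored three weeks later using previously defined criteria.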

The subject of assay [2] is Japanese bulrush. Nature of the assay: Test Example 1: herbicidal activity, application before weed generation under submerged conditions (Table 16, symbol B). The class given is in vivo, Japanese bulrush (Schoenoplectus juncoides). Conditions: 320 g/ha applied herbicide. The procedure, abridged:
(§2)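 Submerged Wagner pots (alluvial soil, 4 cm water) sown with weed seeds and planted with 2.5-leaf rice seedlings; emulsifiable concentrate diluted in water applied to water surface on sowing day. Held in greenhouse at 25-30 °C; injury scored 0-5 by herbicidal rate after three weeks.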

The subject of assay [3] is barnyard grass. Nature of the assay: Test Example 4: herbicidal effect by soil treatment (Table 19, symbol H). Type of assay: in vivo, barnyard grass (Echinochloa crus-galli). To be noted: amount of applied herbicide 320 g/ha. In short, it runs like this:
(§3)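 Emulsion of test compound, water-diluted to predetermined amount, sprayed on soil after sowing (seed depth ~1.5 cm, sterilized diluvial soil). Greenhouse, 25–30° C. Effect graded at three weeks post-spray.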

Assay [4] has as its system windgrass. Nature of the assay: Test Example 4: herbicidal effect by soil treatment (Table 19, symbol L). Type of assay: in vivo, windgrass (Apera spica-venti). To be noted: amount of applied herbicide 320 g/ha. The procedure, abridged: as §3
For assay [5], the system named is lambsquarters. Kind of assay: Test Example 4: herbicidal effect by soil treatment (Table 19, symbol O). Type of assay: in vivo, lambsquarters (Chenopodium album). To be noted: amount of applied herbicide 320 g/ha. In short, it runs like this: as §3
For assay [6], the system named is windgrass. Kind of assay: Test Example 5: herbicidal effect by foliage application, plastic box (Table 20, symbol L). Type of assay: in vivo, windgrass (Apera spica-venti). Conditions: foliage application, 320 g/ha, evaluated three weeks after application. The procedure, abridged: (§4)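 Post-emergence foliar test in sterilized diluvial soil. Compound applied as water-diluted emulsion at a predetermined rate to 14-day-old plants; evaluation at three weeks.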

The subject of assay [7] is lambsquarters. Kind of assay: Test Example 5: herbicidal effect by foliage application, plastic box (Table 20, symbol O). The class given is in vivo, lambsquarters (Chenopodium album). Conditions: foliage application, 320 g/ha, evaluated three weeks after application. The procedure, abridged: as §4
Assay [8] deals with velvetleaf. Kind of assay: Test Example 4: herbicidal effect by soil treatment (Table 19, symbol M). The class given is in vivo, velvetleaf (Abutilon theophrasti). To be noted: amount of applied herbicide 320 g/ha. In short, it runs like this: as §3
A further assay relates to Chinese sprangletop. Kind of assay: Test Example 3: herbicidal effect by foliage application, Wagner pot (Table 18, symbol D). The class given is in vivo, chinese sprangletop (Leptochloa chinensis). To be noted: amount of applied herbicide 320 g/ha. In short, it runs like this: as §1
In another assay the test system is persian speedwell. Kind of assay: Test Example 5: herbicidal effect by foliage application, plastic box (Table 20, symbol R). To be noted: foliage application, 320 g/ha, evaluated three weeks after application. The class given is in vivo, Persian speedwell (Veronica persica). In short, it runs like this:
as §4

The test system of a further assay is wild oat. Kind of assay: Test Example 5: herbicidal effect by foliage application, plastic box (Table 20, symbol I). The class given is in vivo, wild oat (Avena fatua). To be noted: foliage application, 320 g/ha, evaluated three weeks after application. In short, it runs like this:
as §4

In assay [9] the test system is velvetleaf. Nature of the assay: Test Example 5: herbicidal effect by foliage application, plastic box (Table 20, symbol M). Type of assay: in vivo, velvetleaf (Abutilon theophrasti). To be noted: foliage application, 320 g/ha, evaluated three weeks after application. The procedure, abridged: as §4
Assay [10] deals with southern crabgrass. Kind of assay: Test Example 5: herbicidal effect by foliage application, plastic box (Table 20, symbol F). To be noted: foliage application, 320 g/ha, evaluated three weeks after application. The class given is in vivo, southern crabgrass (Digitaria ciliaris). In short, it runs like this:
as §4

The test system of assay [11] is southern crabgrass. Nature of the assay: Test Example 4: herbicidal effect by soil treatment (Table 19, symbol F). Type of assay: in vivo, southern crabgrass (Digitaria ciliaris). Conditions: amount of applied herbicide 320 g/ha. In short, it runs like this: as §3
The next assay has as its system late watergrass. Kind of assay: Test Example 1: herbicidal activity, application before weed generation under submerged conditions (Table 16, symbol A). Conditions: 320 g/ha applied herbicide. The class given is in vivo, late watergrass (Echinochloa oryzicola). In short, it runs like this: as §2
For assay [12], the system named is Japanese bulrush. Kind of assay: Test Example 2: herbicidal activity, application during weed generation under submerged conditions (Table 17, symbol B). Type of assay: in vivo, Japanese bulrush (Schoenoplectus juncoides). Conditions: AAH 320 g/ha; application during weed generation, submerged conditions. The procedure, abridged: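 Herbicide emulsion, diluted with water to the chosen amount, is applied onto 4 cm floodwater over alluvial soil where the weeds were co-sown and raised at 25–30° C. Application timing: 1–2 leaves. Assessment: three weeks afterwards.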

The subject of the next assay is Italian ryegrass. Nature of the assay: Test Example 5: herbicidal effect by foliage application, plastic box (Table 20, symbol K). The class given is in vivo, Italian ryegrass (Lolium multiflorum). To be noted: foliage application, 320 g/ha, evaluated three weeks after application. The procedure, abridged:
as §4

Regarding `Cc1nn(C)c(=O)c(-c2c(-c3ccc(C(F)F)cc3)sc3ccc(F)cc23)c1O` [2-227], the “herbicidal effect on H: barnyard grass” value in the assay on barnyard grass [1] and with barnyard grass [3] was 5 (Herbicidal rate of 90% or more (almost completely withered)) each time. For the same molecule, the “Herbicidal effect on B: Japanese bulrush (grade 0-5)” value with Japanese bulrush [2] was 0 (Herbicidal rate of 5% or less (almost no effect)). In addition, in the assay with windgrass [4], the “herbicidal effect on L: windgrass” value is 0 (Herbicidal rate of 5% or less (almost no effect)). In addition, in the assay on lambsquarters [5], the “herbicidal effect on O: lambsquarters” value was 5 (Herbicidal rate of 90% or more (almost completely withered)). In addition, the “herbicidal effect on L: windgrass (criteria 0-5)” value in the assay on windgrass [6] is 0 (Herbicidal rate of 5% or less (almost no effect)). For the same molecule, the “herbicidal effect on O: lambsquarters (criteria 0-5)” value in the assay on lambsquarters [7] is on record as 5 (Herbicidal rate of 90% or more (almost completely withered)). For the same molecule, the “herbicidal effect on M: velvetleaf” value in the assay with velvetleaf [8] is given as 5 (Herbicidal rate of 90% or more (almost completely withered)). Further, the “herbicidal effect on D: Chinese sprangletop” value with Chinese sprangletop was 3 (Herbicidal rate of 40% or more and less than 70%). Also, the “herbicidal effect on R: persian speedwell (criteria 0-5)” value in the assay on persian speedwell is 5 (Herbicidal rate of 90% or more (almost completely withered)). Also, in the assay with wild oat, the “herbicidal effect on I: wild oat (criteria 0-5)” value is on record as 0 (Herbicidal rate of 5% or less (almost no effect)). Moreover, the “herbicidal effect on M: velvetleaf (criteria 0-5)” value in the assay with velvetleaf [9] was 5 (Herbicidal rate of 90% or more (almost completely withered)). In the assay with southern crabgrass [10], the “herbicidal effect on F: southern crabgrass (criteria 0-5)” value is listed as 5 (Herbicidal rate of 90% or more (almost completely withered)). In the assay with southern crabgrass [11], the “herbicidal effect on F: southern crabgrass” value is reported as 5 (Herbicidal rate of 90% or more (almost completely withered)). Besides, in the assay on late watergrass, the “Herbicidal effect on A: late watergrass (grade 0-5)” value is 3 (Herbicidal rate of 40% or more and less than 70%). In the assay on Japanese bulrush [12], the “herbicidal effect rating, B: Japanese bulrush” value is 2 (Herbicidal rate of 20% or more and less than 40%). In addition, the “herbicidal effect on K: Italian ryegrass (criteria 0-5)” value in the assay on Italian ryegrass is 4 (Herbicidal rate of 70% or more and less than 90%).

Consider `CCCSc1ccc(-c2sc3ccc(F)cc3c2-c2c(OC(=O)CCC)c(C)nn(C)c2=O)cc1` [2-249], for which the “herbicidal effect on H: barnyard grass” value was 5 (Herbicidal rate of 90% or more (almost completely withered)) in the assay on barnyard grass [1]; 4 (Herbicidal rate of 70% or more and less than 90%) with barnyard grass [3]. The “Herbicidal effect on B: Japanese bulrush (grade 0-5)” value with Japanese bulrush [2] was 2 (Herbicidal rate of 20% or more and less than 40%). Besides, in the assay on windgrass [4], the “herbicidal effect on L: windgrass” value was 0 (Herbicidal rate of 5% or less (almost no effect)). Also, the “herbicidal effect on O: lambsquarters” value in the assay with lambsquarters [5] was 3 (Herbicidal rate of 40% or more and less than 70%). The “herbicidal effect on L: windgrass (criteria 0-5)” value with windgrass [6] was 4 (Herbicidal rate of 70% or more and less than 90%). Besides, in the assay on lambsquarters [7], the “herbicidal effect on O: lambsquarters (criteria 0-5)” value was 4 (Herbicidal rate of 70% or more and less than 90%). The “herbicidal effect on M: velvetleaf” value with velvetleaf [8] is 1 (Herbicidal rate of 5% or more and less than 20%). In addition, the “herbicidal effect on D: Chinese sprangletop” value with Chinese sprangletop is 3 (Herbicidal rate of 40% or more and less than 70%). In the assay with persian speedwell, the “herbicidal effect on R: persian speedwell (criteria 0-5)” value was 5 (Herbicidal rate of 90% or more (almost completely withered)). In the assay with wild oat, the “herbicidal effect on I: wild oat (criteria 0-5)” value is 4 (Herbicidal rate of 70% or more and less than 90%). The “herbicidal effect on M: velvetleaf (criteria 0-5)” value in the assay on velvetleaf [9] is recorded as 5 (Herbicidal rate of 90% or more (almost completely withered)). The “herbicidal effect on F: southern crabgrass (criteria 0-5)” value with southern crabgrass [10] is recorded as 5 (Herbicidal rate of 90% or more (almost completely withered)). Besides, the “herbicidal effect on F: southern crabgrass” value in the assay on southern crabgrass [11] is 3 (Herbicidal rate of 40% or more and less than 70%). Besides, the “Herbicidal effect on A: late watergrass (grade 0-5)” value with late watergrass was 3 (Herbicidal rate of 40% or more and less than 70%). Also, the “herbicidal effect rating, B: Japanese bulrush” value with Japanese bulrush [12] is reported as 0 (Herbicidal rate of 5% or less (almost no effect)). In the assay on Italian ryegrass, the “herbicidal effect on K: Italian ryegrass (criteria 0-5)” value was 3 (Herbicidal rate of 40% or more and less than 70%).
